Assay [1] relates to PQS production. Nature of the assay: Effect of methyl anthranilate on PQS production (TLC of culture supernatant extracts, densitometry). Format: cell-based, P. aeruginosa strain PAO1. On the procedure: Bacteria from frozen stocks were grown overnight on PTSB agar plates (Ohman, et al. (1980) J. Bacteriol. 142:836-842) at 37° C. Isolated colonies were used to inoculate 10 ml of PTSB which was then incubated for 18 hr at 37° C. with vigorous shaking. Cultures were diluted 1:100 into fresh media and grown for 24 hr as above. A 400 μl aliquot of each culture was mixed with 800 μl of acidified ethyl acetate (Pesci, et al. (1999) Proc. Natl. Acad. Sci. USA 96:11229-11234), vortexed vigorously for 30 sec, then centrifuged for 10 min at 16,000×g. The organic phase was transferred to a fresh tube, and the aqueous phase was re-extracted with an additional 800 μl of solvent. The organic phases were combined, dried to completion and the solute was dissolved in 200 μl of a 1:1 mix of acidified ethyl acetate:acetonitrile. An amount of extract derived from 5 μl of culture was loaded onto the TLC plate. TLC was performed with a silica gel 60 F254 TLC plate (EM Science) that had been soaked in 5% KH2PO4 and activated at 100° C. for one hour. […]
P. aeruginosa strain PAO1 was grown in the presence of increasing amounts of methyl anthranilate, and culture supernatants were extracted with ethyl acetate and separated on TLC plates. PQS was visualized under long-wave UV light and photographed to quantify PQS densitometrically. […]

Assay [2] has as its system P. aeruginosa strain PAO1. The assay can be described thus: Growth of cultures in the presence of methyl anthranilate. As to conditions: 0, 0.25, 0.5, 1.0, and 1.5 mM methyl anthranilate. It is filed as cell-based. On the procedure: P. aeruginosa strain PAO1 was grown in the presence of increasing amounts of methyl anthranilate, and culture supernatants were extracted with ethyl acetate and separated on TLC plates. PQS was visualized under long-wave UV light and photographed to quantify PQS densitometrically. The amount of PQS present in the culture supernatant decreased as the concentration of methyl anthranilated increased, although the growth of the cultures was not affected by the presence of methyl anthranilate at the concentrations used in these experiments (0, 0.25, 0.5, 1.0, and 1.5 mM methyl anthranilate, with approximately 30% PQS being produced at 1.5 mM methyl anthranilate as compared to wild type bacateria).

Regarding `COC(=O)c1ccccc1N` [methyl anthranilate], in assay [1] (1.5 mM methyl anthranilate, strain PAO1 culture supernatant, densitometry of TLC under long-wave UV), the “PQS being produced as compared to wild type bacteria” value is listed as “approximately 30%”. In addition, in assay [1] (increasing methyl anthranilate concentration (0, 0.25, 0.5, 1.0, and 1.5 mM), strain PAO1), the “amount of PQS present in the culture supernatant” value is on record as “decreased”. Further, the “growth of the cultures” value in assay [2] is reported as “not affected”.
